The values below come from publication PMC11346425, “Sulfoquinovosyl diacylglycerol is required for dimerisation of the Rhodobacter sphaeroides reaction centre-light harvesting 1 core complex” (Biochemical Journal, 2024).

Assay in all cases: light-driven cytochrome c2 oxidation at […] nm, steady state
What all share (type): biochemical

Experiment [1] has as its target T1, monomeric RC-LH1 core complex (RC3-LH1_14-XY) (Cereibacter sphaeroides, UniProt Q3J1A5+Q3J1A6).
T1 construct: gene pufL; native, beta-DDM-solubilised membranes, sucrose gradient monomer band; 1 RC, C-shaped LH1 of 14 subunits; with Reaction center protein M chain; Reaction center protein H chain; Light-harvesting protein B-875 alpha chain; Light-harvesting protein B-875 beta chain; Intrinsic membrane protein PufX; Protein-Y
Conditions: 50 uM ubiquinone-2, 5 uM reduced cytochrome c2, 810 nm LED, pH 8, 0.03% beta-DDM; electron acceptor; 0.05 uM RC-LH1.

The target of experiment [2] is T1, monomeric RC-LH1 core complex (RC3-LH1_14-XY). Conditions: 50 uM ubiquinone-2, 5 uM reduced cytochrome c2, 810 nm LED, pH 8, 0.03% beta-DDM; electron acceptor.
The target in experiment [3] is T2, dimeric RC-LH1 core complex (Cereibacter sphaeroides, UniProt Q3J1A5+Q3J1A6).
T2 construct: gene pufL; native, beta-DDM-solubilised membranes, sucrose gradient dimer band; 2 RC, S-shaped LH1 of 28 subunits; with Reaction center protein M chain; Reaction center protein H chain; Light-harvesting protein B-875 alpha chain; Light-harvesting protein B-875 beta chain; Intrinsic membrane protein PufX; Protein-Y; Protein-Z
As to conditions: 50 uM ubiquinone-2, 5 uM reduced cytochrome c2, 810 nm LED, pH 8, 0.03% beta-DDM; electron acceptor; 0.01 uM RC-LH1.

For `COC1=C(OC)C(=O)C(C/C=C(\C)CCC=C(C)C)=C(C)C1=O` [ubiquinone-2], the “light-driven cytochrome c2 oxidation at 550 nm, steady state” value in experiment [1] was “Turnover assays for monomeric complexes from WT, PufX R49L R53L, ΔolsBA and ΔsqdB mutants”; in experiment [2], “light-driven oxidation rate of cytochrome c2 by monomeric and dimeric complexes in the presence of ubiquinone-2”; in experiment [3] it was “light-driven oxidation rate of cytochrome c2 by monomeric and dimeric complexes in the presence of ubiquinone-2”.
